Measurements: US20130053337A1, “GUANIDINYLATED AMINOGLYCOSIDE-LIPID CONJUGATES” (UNIVERSITY OF MANITOBA, priority 2010, published 2013)

Legend:
S. aureus ATCC 29213 = assay: MIC, broth macrodilution (CLSI); type: cell-based, Staphylococcus aureus; settings: S. aureus ATCC29213
Procedure: (§1) All experiments were performed in duplicate.
(§2) Bacterial isolates studied included both reference strains obtained from the American Type Culture Collection (ATCC) as well as clinical strains obtained from the CAN-ICU study which was a national surveillance study assessing the prevalence of antimicrobial resistant pathogens in Canadian intensive care units (Zhanel et al., 2008). Isolates were kept frozen in skim milk at −80° C. until minimum inhibitory concentration (MIC) testing was carried out. Following two subcultures from frozen stock, the in vitro activities of peptides were determined by macrobroth dilution in accordance with the Clinical and Laboratory Standards Institute (CLSI) 2006 guidelines (Zhanel et al., 2008). Stock solutions of peptides were prepared and dilutions made as described by CLSI. Test tubes contained doubling antimicrobial dilutions of cation adjusted Mueller-Hinton broth and inoculated to achieve a final concentration of approximately 5×10^5 cfu/ml then incubated in ambient air for 24 hours prior to reading. Colony counts were performed periodically to confirm inocula. Quality control was regularly performed using ATCC QC organisms.

MRSA ATCC 33592 = assay: MIC, broth macrodilution (CLSI); type: cell-based, methicillin-resistant Staphylococcus aureus; settings: for MIC: MRSA ATCC33592; for fold lower MIC (MRSA) compared to analogs 6 and 7: guanidinylated vs polyamine analog
Procedure: as §1, §2

[1] = system: S. epidermidis ATCC 14990; assay: MIC, broth macrodilution (CLSI); type: cell-based, Staphylococcus epidermidis; settings: S. epidermidis ATCC14990
Procedure: as §1, §2

MRSE CAN-ICU 61589 [2] = assay: MIC, broth macrodilution (CLSI); type: cell-based, methicillin-resistant Staphylococcus epidermidis
Procedure: as §1, §2

E. faecalis ATCC 29212 = assay: MIC, broth macrodilution (CLSI); type: cell-based, Enterococcus faecalis; settings: E. faecalis ATCC29212
Procedure: as §1, §2

E. faecium ATCC 27270 = assay: MIC, broth macrodilution (CLSI); type: cell-based, Enterococcus faecium; settings: E. facium ATCC27270
Procedure: as §1, §2

S. pneumoniae ATCC 49619 = assay: MIC, broth macrodilution (CLSI), broth with 5% laked horse blood; type: cell-based, Streptococcus pneumoniae; settings: S. pneumoniae ATCC49619
Procedure: as §1, §2

[3] = system: E. coli (amikacin MIC 32 mg/L) CAN-ICU 63074; assay: MIC, broth macrodilution (CLSI); type: cell-based; settings: E. coli CAN-ICU 63074
Procedure: as §1, §2

[4] = system: E. coli (gentamicin-resistant) CAN-ICU 61714; assay: MIC, broth macrodilution (CLSI); type: cell-based; settings: E. coli CAN-ICU 61714
Procedure: as §1, §2

E. coli ATCC 25922 = assay: MIC, broth macrodilution (CLSI); type: cell-based; settings: E. coli ATCC25922
Procedure: as §1, §2

[5] = system: P. aeruginosa (gentamicin-resistant) CAN-ICU 62308; assay: MIC, broth macrodilution (CLSI); type: cell-based
Procedure: as §1, §2

P. aeruginosa ATCC 27853 = assay: MIC, broth macrodilution (CLSI); type: cell-based; settings: P. aeruginosa ATCC27853
Procedure: as §1, §2

[6] = system: sheep red blood cell (erythrocytes); assay: Hemolytic assay (in vitro toxicity); settings: for hemolytic activity at 100 mg/L: sheep erythrocytes, percent hemolysis
Procedure: Antibacterial activity against Gram-positive and Gram-negative microorganisms was tested via broth macrodilution tests using CLSI methodology (Zhanel et al., 2008). Stock solutions of cationic lipids in water were brought to a concentration of 512 mg/L. Organisms were subcultured and isolated on blood agar, suspended in 3 mL of Mueller-Hinton broth at the turbidity of a […], and diluted to approximately 10^5 cfu/mL before introduction into tubes containing serially diluted lipopeptide antibiotic in Mueller-Hinton broth. Activity testing against S. pneumoniae used broth supplemented with laked horse blood to give 5% horse blood in experimental tubes. Turbidity of lipopeptide solution in broth required creation of control tubes lacking organisms serving as turbidity controls. All tubes were incubated overnight for 16-20 h at 37° C. […] All experiments were performed in duplicate. In-vitro toxicity was determined using a sheep red blood cell hemolytic assay as previously described (Dathe et al., 1996).
In vitro toxicity was determined using a sheep red blood cell (erythrocytes) hemolytic assay (Dathe et al., 1996). […] Erythrocytes were washed and resuspended in Tris buffered saline. The cell suspension was combined with varying concentrations (low to very high) of test and control antimicrobials (e.g., aminoglycosides and APTCs). The samples were centrifuged and the absorbance of the supernatants measured at 540 nm. Tris buffered saline and Triton X were used as negative and positive controls, respectively. The toxicity was assessed by percent hemolysis.

[7] = system: E. coli (gentamicin-resistant) CAN-ICU 61714; settings: E. coli CAN-ICU 61714; Zhanel et al., 2008; cited from earlier work
[8] = system: P. aeruginosa (gentamicin-resistant) CAN-ICU 62308; settings: P. aeruginosa CAN-ICU 62308; Zhanel et al., 2008; cited from earlier work
MRSE CAN-ICU 61589 [9] = settings: Zhanel et al., 2008; cited from earlier work
[10] = gentamicin-resistant (as well as neomycin B and kanamycin A-resistant) P. aeruginosa strain

Compound	MIC (S. aureus ATCC 29213) [µg/mL]	MIC (MRSA ATCC 33592) [µg/mL]	fold lower MIC (MRSA) compared to analogs 6 and 7 (MRSA ATCC 33592) [fold]	MIC [1] [µg/mL]	MIC (MRSE CAN-ICU 61589 [2]) [µg/mL]	MIC (E. faecalis ATCC 29212) [µg/mL]	MIC (E. faecium ATCC 27270) [µg/mL]	MIC (S. pneumoniae ATCC 49619) [µg/mL]	MIC [3] [µg/mL]	MIC [4] [µg/mL]	MIC (E. coli ATCC 25922) [µg/mL]	MIC ([5]; P. aeruginosa CAN-ICU 62308) [µg/mL]	MIC [5, 10] [µg/mL]	MIC (P. aeruginosa ATCC 27853) [µg/mL]	hemolytic activity at 100 mg/L [6] [%]	MIC (strain description) [7] [µg/mL]	MIC (strain description) [8] [µg/mL]	MIC (strain description) (MRSE CAN-ICU 61589 [9]) [µg/mL]	hemolytic activity compared to polyamine analogs 3 and 15 ([6]; in words)
N=C(N)NCC1OC(OC2C(CNC(=O)CCCc3ccc4ccc5cccc6ccc3c4c56)OC(OC3C(O)C(NC(=N)N)CC(NC(=N)N)C3OC3OC(CNC(=N)N)C(O)C(O)C3NC(=N)N)C2O)C(NC(=N)N)C(O)C1O.O=C(O)C(F)(F)F.O=C(O)C(F)(F)F.O=C(O)C(F)(F)F.O=C(O)C(F)(F)F.O=C(O)C(F)(F)F.O=C(O)C(F)(F)F (stereo not shown) [Compound 13, 1,3,2′,6′,2′″,6′″-Hexaammonium-guanidinyl-5″-deoxy-5″-N-((4-pyrenyl)-butanoyl)-neomycin hexakis(trifluoroacetate)]	8	8	32	8	8	32	16	64	32	32	32	16	16	32	3				
CCCCCCCCCCCCCCCC(=O)NCC1OC(OC2C(NC(=N)N)CC(NC(=N)N)C(OC3OC(CNC(=N)N)C(O)C(O)C3O)C2O)C(O)C(NC(=N)N)C1O.O=C(O)C(F)(F)F.O=C(O)C(F)(F)F.O=C(O)C(F)(F)F.O=C(O)C(F)(F)F (stereo not shown) [Compound 16, 1,3,6′,3″-Tetraammonium-guanidinyl-6″-deoxy-6″-N-(hexadecanoyl)-kanamycin-tetrakis-(trifluoroacetate)]	16	8		8	8	16	16	128	64	128	64	64		256	6.7				
CC(CCC(=O)NCC1OC(OC2C(O)C(NC(=N)N)CC(NC(=N)N)C2OC2OC(CNC(=N)N)C(O)C(O)C2NC(=N)N)C(O)C1OC1OC(CNC(=N)N)C(O)C(O)C1NC(=N)N)C1CCC2C3C(O)CC4CC(O)CCC4(C)C3CC(O)C12C.O=C(O)C(F)(F)F.O=C(O)C(F)(F)F.O=C(O)C(F)(F)F.O=C(O)C(F)(F)F.O=C(O)C(F)(F)F.O=C(O)C(F)(F)F (stereo not shown) [Compound 14, 1,3,2′,6′,2′″,6′″-Hexaammonium-guanidinyl-5″-deoxy-5″-N-(cholanoyl)-neomycin hexakis(trifluoroacetate)]	16	16	8	4	8	32	16	64	32	64	64	32		128	2				
Gentamicin [reference compound]	1	2		0.25	32			4	8	128	1	128		8		> 32	> 32		
Cc1nnc(SCC2=C(C(=O)O)N3C(=O)[C@@H](NC(=O)Cn4cnnn4)[C@H]3SC2)s1 [cefazolin]																		> 32	
CCCCCCCCCCCC(=O)NCC1OC(OC2C(O)C(NC(=N)N)CC(NC(=N)N)C2OC2OC(CNC(=N)N)C(O)C(O)C2NC(=N)N)C(O)C1OC1OC(CNC(=N)N)C(O)C(O)C1NC(=N)N.O=C(O)C(F)(F)F.O=C(O)C(F)(F)F.O=C(O)C(F)(F)F.O=C(O)C(F)(F)F.O=C(O)C(F)(F)F.O=C(O)C(F)(F)F (stereo not shown) [Compound 9, 1,3,2′,6′,2′″,6′″-Hexaammonium-guanidinyl-5″-deoxy-5″-N-(dodecanoyl)-neomycin hexakis(trifluoroacetate)]	4	8		2	2	32	16	64	16	32	16	32		32	2				
CCCCCCCCCCCCCCCC(=O)NCC1OC(OC2C(O)C(NC(=N)N)CC(NC(=N)N)C2OC2OC(CNC(=N)N)C(O)C(O)C2NC(=N)N)C(O)C1OC1OC(CNC(=N)N)C(O)C(O)C1NC(=N)N.O=C(O)C(F)(F)F.O=C(O)C(F)(F)F.O=C(O)C(F)(F)F.O=C(O)C(F)(F)F.O=C(O)C(F)(F)F.O=C(O)C(F)(F)F (stereo not shown) [Compound 10, 1,3,2′,6′,2′″,6′″-Hexaammonium-guanidinyl-5″-deoxy-5″-N-(hexadecanoyl)-neomycin hexakis(trifluoroacetate)]	4	4		1	4	4	0.5	32	32	64	32	8	8	32	13				reduced hemolytic activity
CCCCCCCCCCCCCCCC(=O)NCC1OC(OC2C(N)CC(N)C(OC3OC(CN)C(O)C(O)C3O)C2O)C(O)C(N)C1O.O=C(O)C(F)(F)F.O=C(O)C(F)(F)F.O=C(O)C(F)(F)F.O=C(O)C(F)(F)F (stereo not shown) [Compound 15, 1,3,6′,3″-Tetraammonium-6″-deoxy-6″-N-(hexadecanoyl)-kanamycin-tetrakis-(trifluoroacetate)]	8	16		2	2	8	8	64	32	32	32	64		64	20				
CCCCCCCCCCCCCCCCCCCC(=O)NCC1OC(OC2C(O)C(NC(=N)N)CC(NC(=N)N)C2OC2OC(CNC(=N)N)C(O)C(O)C2NC(=N)N)C(O)C1OC1OC(CNC(=N)N)C(O)C(O)C1NC(=N)N.O=C(O)C(F)(F)F.O=C(O)C(F)(F)F.O=C(O)C(F)(F)F.O=C(O)C(F)(F)F.O=C(O)C(F)(F)F.O=C(O)C(F)(F)F (stereo not shown) [Compound 11]	32	32		4	4	32	2	64	128	128	64	64		128	82				
